PMC7247319, “The mitochondria-targeted peptide SS-31 binds lipid bilayers and modulates surface electrostatics as a key component of its mechanism of action” (The Journal of Biological Chemistry, 2020)
Where a SMILES comes first, the peptide text is derived from it. [ ]: non-standard residue; d: D form. Dmt = Cc1cc(O)cc(C)c1C[C@H](N)C(=O)O

How the values were obtained:
[1] = tested on: LUVs composed of POPC alone or with 20% TOCL, MLCL, or POPG; assay: Synchrotron SAXS and 31P solid-state NMR of model membranes; conditions: highest peptide concentration, [P]/[L]^eff = 1:5; 2 mM total lipid
Excerpt: Amphipathic molecules such as antimicrobial peptides can induce large structural changes in membranes, including micellization, pore formation, and induction of inverted topologies ([45]). We therefore addressed whether SS-31 induced structural polymorphism within model bilayers using a range of approaches (Fig. 4). […] Similarly, based on ^31P solid-state NMR (ssNMR) measurements, these model membranes yielded line shapes consistent with lamellar bilayers ([47]), and we observed no effect of SS-31 on bilayer structure (Fig. 4B, supporting Results F, and Fig. S10B). […] Thus, these membranes are expected to exist stably in the liquid crystalline lamellar mesophase over all peptide concentrations.
Figure 4. Effects of SS-31 on structural properties of model membranes. […] LUVs composed of 20% anionic lipid (TOCL, MLCL, or POPG) in POPC background were measured in the absence or presence of peptide ([SS-31]/[lipid]^eff = 1:5) as indicated. […] Data and fits in gray show SS-31 fractional saturation (calculated from Fig. 2A, [lipid]^eff = 25 μM). […]
NMR data were recorded at 162 MHz on a Bruker AVANCE III 400-MHz WB spectrometer equipped with an HXY probe tuned for ^1H and ^31P. […] Model membranes (LUVs) were measured at 25 °C (total of 10,240 scans/sample) with a total lipid concentration of 2 mM lipid in the presence of different concentrations of SS-31 (0, 1:500, 1:50, and 1:5 [P]/[L]^eff). […]

[2] = tested on: mitoplasts from WT and Δcrd1 yeast; assay: ANS-detected surface potential of mitoplasts; design: species or system Saccharomyces cerevisiae
Excerpt: Figure 6. Interaction of SS-31 with isolated mitochondria. A, [ald]SS-31 binding with differing phospholipid composition. Left, percentages of total phospholipid of each species (phosphatidylcholine (PC), phosphatidylethanolamine (PE), cardiolipin (CL), monolyso-CL (MLCL), phosphatidylglycerol (PG), phosphatidic acid (PA), phosphatidylinositol (PI), phosphatidylserine (PS), and lysophosphatidylcholine (LPC)) in mitochondria from WT, Δtaz1, and Δcrd1 strains measured by shotgun lipidomics. Right, binding of 1 μM [ald]SS-31 with mitochondria isolated from WT, Δtaz1, and Δcrd1 yeast strains quantified as the mean fractional increase (F/F0) in aladan emission with increasing mitochondria concentration for fully energized mitochondria. Inset, relative binding of [ald]SS-31 to mitochondria (0.2 mg ml^−1) in the presence or absence of 1 μM valinomycin (val) as indicated. Values shown are means ± S.D. (error bars) (n = 3). B, comparison of [ald]SS-31 binding to mitochondria and model membranes. […]
The final goal of these experiments was to evaluate the effect of SS peptides on the surface electrostatic properties of mitochondrial membranes. […] We therefore compared the titration of mitoplasts with SS-31 and mono- and divalent cations (K^+ and Ca^2+, respectively) to evaluate the relative effects of each species on ANS-detected ψs (Fig. 6C). […]

Cc1cc(O)cc(C)c1C[C@H](NC(=O)[C@H](N)CCCNC(=N)N)C(=O)N[C@@H](CCCCN)C(=O)N[C@@H](Cc1ccccc1)C(N)=O [SS-31, D-Arg-2′6′-dimethyl-Tyr-Lys-Phe-NH2] (H-[dR][Dmt]KF-NH2)
effect on bilayer structure / lamellarity (SAXS, 31P ssNMR) [1]: did not cause major topological alterations
effect of peptide addition prior to CaCl2 titration on Ca2+-mediated decrease in ψs ([2]; WT mitoplasts, 20 μM SS-31 added before CaCl2): strongly blunted the effects of Ca^2+ on surface potential
effect on ANS fluorescence (ψs) of mitoplasts ([2]; titration of WT and Δcrd1 mitoplasts, n = 3): increase in ANS fluorescence
